Measured values published in US5436261A, “Benzospiroalkene heterocyclic compounds” (Adir et Compagnie, priority 1993, dated 1995).
Where a name gives a salt, the structure may show the parent alone.

Experiments:
pithed rats = assay: In vivo study in pithed rats, blood pressure; parameters: species or system rat (Sprague-Dawley); conditions: Rattus norvegicus, iv, tertatolol pretreated, without prazosin or yohimbine, read-out: C20 Control (concentration that increases the pressure by 20 mm Hg)
Text: (§1) In vivo study in PITBED RATS
(§2) Male Sprague-Dawley rats (300-400 g) are anesthetized with ether. The trachea is canulated, the spinal cord is destroyed by means of a steel rod and the animal is immediately placed under artificial respiration. The vagal nerves are sectioned. The carotid arteries are ligated; a catheter is placed in one and is used to record blood pressure. A further three catheters are placed in the jugular veins and the veins of the penis and are used for injections. The animals'temperature is maintained at 36° C. The animal is pretreated by an injection of tertatolol ([…]). The animal is also pretreated 10 minutes later with prazosin ([…]) or yohimbine (1 mg/kg) when it is desired to determine the alpha1 --or alpha2 -adrenergic properties of the product. Ten minutes later, increasing cumulative doses of the product are injected every 20 seconds. Variations in blood pressure are detected using a Statham P23XL pressure cell and are recorded. The pressure values are expressed in mmHg. This experiment enables the concentration that increases the pressure by 20 mm Hg (C2.sbsb.0) to be calculated by non-linear regression according to the Michaelis and Menten model of the law of mass action, as described above. The maximum effect obtained is then converted to a percentage relative to the maximum effect produced by phenylephrine. The alpha1 - or alpha2 -adrenergic components of the product are assessed by means of the ratio of the C2.sbsb.0 values obtained in the presence of prazosin or yohimbine to the values obtained in the absence of these antagonists. In pithed rats, the products of the invention produce prazosin- and yohimbine-sensitive hypertension.

alpha2-adrenergic = assay: In vivo study in pithed rats, pretreatment with yohimbine (alpha2-adrenergic component); parameters: species or system rat (Sprague-Dawley); conditions: yohimbine (1 mg/kg) pretreatment
Text: as §1, §2

dog saphenous veins = assay: In vitro study on dog saphenous veins (contraction); type: cell-based, dog (mongrel); conditions: Canis lupus familiaris, dog saphenous vein rings; for EC50: 37C, cumulative doses; for Emax: relative to maximum effect of 100 mM KCl, read-out: VEIN Max
Method: (§3) In vitro study on dog femorai arteries and saphenous veins
(§4) The technique used is based on that described by FOWLER et al., (J. Pharmacol. Exp. Ther., 229, 712-718, 1984). Male or female mongrel dogs weighing approximately 15-25 kg were used as a source of organs. The animals are anesthetized with pentobarbital (30 mg/kg intravenously). The legs are incised and the vessels removed. They are placed in Krebs-Ringer fluid (118 mM NaCl; 25 mM NaHCO3; 10mM glucose; 4.7 mM KCl; 1.25 mM CaCl2; 1.19 mM MgSO4; 1.14 mM KH2 PO4) at room temperature and a stream of carbogen (95% O2, 5% CO2) is bubbled through. The fat is then carefully removed from these vessels, which are thereafter cut into rings 2 mm wide and mounted under a baseline tension of 4 g (femoral arteries) or 1 g (saphenous veins) in tanks thermostated at 37C containing Krebs-Ringer fluid with a stream of carbogen constantly bubbled through. A lower hook constitutes the fixed point, while the upper hook is connected to an isometric force gauge. The variations in tension are digitized, stored on disk and processed by a computer system. After mounting, the organs are left undisturbed for 90 minutes, rinsing being performed every 30 min. After readjustment of the baseline tension, a contraction is induced with a single dose of KCl (100 mM). After stabilization, washing and return to the baseline, a contraction is induced by a single dose of phenylephrine (submaximal concentrations) in order to regularize the following contractions. After washing and return to the baseline, an effect/concentration curve is plotted by adding cumulative doses of agonist (the spacing between the doses is on a semilogarithmic scale). This experiment enables the 50% effective concentration (EC50) to be calculated in the following manner: the tension values are first converted to percentages relative to the maximum effect produced by 100 mM KCl. This EC50 is determined by nonlinear regression by the SIMPLEX method (M. S. CACECI, Byte, 340-362, 1984), calculated according to the L. MICHAELIS and M. L. MENTEN model of the law of mass action (Blochem. Zeitschrift, 49, 333-369, 1913). E=(Emax*C^n)(EC^n +C^n) with E=effects; Emax=maximum effect; C=concentration; EC=EC50; n=HILL's number

carotid blood flow = assay: In vivo study of carotid blood flow in anesthetized dogs; parameters: species or system dog; dose or concentration left out as unconfirmed; conditions: i.v., n-6
Method: In vivo study of carotid blood flow in anesthetized dogs
Dogs (12-18kg) are anesthetized with pentobarbital (30mg/kg i.v.). Anesthesia is then maintained by a perfusion of 0.8 ml/h of 6% pentobarbital. The animals are placed under assisted respiration and their temperature is maintained at 37C (Harvard thermostated blanket). Blood pressure and heart rate are measured by means of a Millar probe in the fernoral artery or brachial artery, via a transducer and a Gould biotach. The blood flow in the carotid arteries is recorded by means of a Gould SP2202 electromagnetic flow meter.

dog femoral arteries = assay: In vitro study on dog femoral arteries (contraction); type: cell-based, dog (mongrel); conditions: Canis lupus familiaris, dog femoral artery rings; for EC50: 37C, cumulative doses; for Emax: relative to maximum effect of 100 mM KCl, read-out: ARTERY Max
Method: as §3, §4

SMILES: CC(C)Oc1ccc2c(c1)CCC1(CNC=N1)C2 (centres unmarked) [Example 5, Spiro[(1,3-diaza-1-cyclopentene)-5,2'-(6'-isopropyloxy-1',2',3',440-tetrahydronaphthalene)]fumarate]
- ED (20 mm Hg) (pithed rats): 0.068 mg/kg
- Ratio C20 treated/C20 control, Yohimbine (alpha2-adrenergic): 66

SMILES: COc1cc2c(cc1O)CCC1(CNC=N1)C2 (centres unmarked) [Example 3, Spiro[(1,3-diaza-1-cyciopentene)-5,2'-(6'-hydroxy-7'-methoxy-1',2',3',4'-tetrahydronaphthalene)]fumarate]
- ED (20 mm Hg) (pithed rats): 0.0009 mg/kg
- Ratio C20 treated/C20 control, Yohimbine (alpha2-adrenergic): 2.9

SMILES: Cc1ccc2c(c1)C[C@@]1(CC2)CNC=N1 [Example 46, (S)-Spiro[(1,3-diaza-1-cyclopentene)-5,2'-(7'-methyl-1',2',3',4'-tetrahydronaphthalene)]fumarate]
- EC50 (dog saphenous veins): 1.86 µM
- Emax (dog saphenous veins): 48%
- ED (20 mm Hg) (pithed rats): 0.0068 mg/kg
- Ratio C20 treated/C20 control, Yohimbine (alpha2-adrenergic): 3.4
- fall in carotid blood flow (carotid blood flow): 62±4%
- EC50 (dog femoral arteries): 15 µM
- Emax (dog femoral arteries): 36%

SMILES: Cc1ccc2c(c1)CCC1(CNC=N1)C2 (centres unmarked) [Example 8, Spiro[(1,3-diaza-1-cyclopentene)-5,2'-(6'-methyl-1',2',3',4'-tetrahydronaphthalene)]fumarate]
- EC50 (dog saphenous veins): 2.1 µM
- Emax (dog saphenous veins): 44%
- EC50 (dog femoral arteries): 13 µM
- Emax (dog femoral arteries): 12%

SMILES: COc1ccc2c(c1OC)CCC1(CNC=N1)C2 (centres unmarked) [Example 7, Spiro[(1,3-diaza-1-cyclopentene)-5,2'-(5',6'-dimethoxy-1',2',3',4'-tetrahydronaphthalene)]fumarate]
- ED (20 mm Hg) (pithed rats): 0.137 mg/kg
- Ratio C20 treated/C20 control, Yohimbine (alpha2-adrenergic): 2.4

SMILES: COc1cc(C)cc2c1CCC1(CNC=N1)C2 (centres unmarked) [Example 9, Spiro[(1,3-diaza-1-cyciopentene)-5,2'-(5'-methoxy-7'-methyl-1',2',3',4'-tetrahydronaphthalene) ]fumarate]
- EC50 (dog saphenous veins): 3.9 µM
- Emax (dog saphenous veins): 81%
- EC50 (dog femoral arteries): 0.8 µM
- Emax (dog femoral arteries): 60%

SMILES: C1=NC2(CCc3ccccc3C2)CN1 (centres unmarked) [Example 1, Spiro[(1,3-diaza-1-cyclopentene)-5,2'-(1',2',3',4'-tetrahydronaphthalene)]benzenesulfonate]
- EC50 (dog saphenous veins): 1.3 µM
- Emax (dog saphenous veins): 98%
- ED (20 mm Hg) (pithed rats): 0.004 mg/kg
- Ratio C20 treated/C20 control, Yohimbine (alpha2-adrenergic): 4.7
- EC50 (dog femoral arteries): 5.9 µM
- Emax (dog femoral arteries): 19%

SMILES: C1=NC2(CN1)Cc1cccc3cccc(c13)C2 [Example 31, Spiro[(1,3-diaza-1-cyclopentene)-5,2'-(2,3'-dihydrophenalene)] 1/2 fumarate]
- EC50 (dog saphenous veins): 1.6 µM
- Emax (dog saphenous veins): 44%
- EC50 (dog femoral arteries): 0.5 µM
- Emax (dog femoral arteries): 10%

SMILES: Clc1cc(Cl)c2c(c1)CC1(CC2)CNC=N1 (centres unmarked) [Example 17, Spiro[(1,3-diaza-1-cyclopentene)-5,2'-(5',7'-dichloro-1',2',3',4'-tetrahydronaphthalene)]fumarate]
- EC50 (dog saphenous veins): 1.9 µM
- Emax (dog saphenous veins): 44%
- EC50 (dog femoral arteries): 24 µM
- Emax (dog femoral arteries): 10%

SMILES: Cc1ccc2c(c1)CC1(CC2)CNC=N1 (centres unmarked) [Example 24, Spiro[(1,3-diaza-1-cyclopentene)-5,2'-(7'-methyl-1',2',3',4'-tetrahydronaphthalene)]fumarate]
- EC50 (dog saphenous veins): 0.16 µM
- Emax (dog saphenous veins): 57%
- ED (20 mm Hg) (pithed rats): 0.03 mg/kg
- Ratio C20 treated/C20 control, Yohimbine (alpha2-adrenergic): 1.5
- EC50 (dog femoral arteries): 70 µM
- Emax (dog femoral arteries): 8%
